Measurements reported in patent publication US8067456B2 (AEterna Zentaris GmbH, priority 2004, dated 2011).

What was measured:
castrated rats = experiment: LH concentration suppression in the plasma of castrated rats; type: in vivo, rat; settings: 19 mg/kg oral in Solutol HS15/1,2-propane-diol (3:1)
Experimental: The LH concentration in the plasma of castrated rats was measured using the rat luteinizing hormone (rLH) enzyme immunoassay (EIA) system ELISA (RPN 2562) from Amersham Pharmacia Biotech or of LH RIA-AH R002 rats; from Biocode-Hycel, Liege, Belgium. All other chemicals used were from commercial sources in the highest purity available.
10 days before the start of the test, male Sprague Dawley rats (Harlan Winkelmann, Germany) weighing 190-220 g were anesthetized with ether and castrated and provided with a silicone catheter for permanent blood sampling.
At the start of the test, before administration of the substance, blood samples were taken and the LH level determined. The substance was then administered orally in the desired concentration. The number of animals used in each group was 8. At the stated times, further blood samples were taken. The blood was collected in heparinized sample tubes on ice, and the plasma was obtained by centrifugation at 3000 g for 10 minutes. The plasma samples were stored at −20° C. until the LH concentration was measured by ELISA or RIA. The LH concentration was determined by an ELISA or RIA in duplicate determination in accordance with the manufacturer's (Amersham Pharmacia Biotech; Biocode-Hycel) instructions.
All the other data points for each individual animal were calculated as relative concentration compared with the LH concentration before treatment.

[1] = Metabolic stability in human liver microsomes; type: in vitro ADME; settings: 37° C., NADPH
Experimental: (§1) The metabolic stability in relation to liver microsomes (species human, rat) was determined in accordance with the following description: the substances were incubated at a test concentration of 1 […] An HPLC MS/MS method was subsequently used to quantify the unmetabolized amount of starting compound relative to 100%.

NK2 (h) = target: T1, NK2 (h) (Homo sapiens, UniProt P21452); experiment: NK2 receptor-ligand binding assay (Cerep); settings: for nH: Hill coefficient of competition plot; for IC50 / Ki: ligand [Nle10]-NKA(4-10)
T1 construct: Cerep Assay 826-2h
T1 sequence (P21452 1-398): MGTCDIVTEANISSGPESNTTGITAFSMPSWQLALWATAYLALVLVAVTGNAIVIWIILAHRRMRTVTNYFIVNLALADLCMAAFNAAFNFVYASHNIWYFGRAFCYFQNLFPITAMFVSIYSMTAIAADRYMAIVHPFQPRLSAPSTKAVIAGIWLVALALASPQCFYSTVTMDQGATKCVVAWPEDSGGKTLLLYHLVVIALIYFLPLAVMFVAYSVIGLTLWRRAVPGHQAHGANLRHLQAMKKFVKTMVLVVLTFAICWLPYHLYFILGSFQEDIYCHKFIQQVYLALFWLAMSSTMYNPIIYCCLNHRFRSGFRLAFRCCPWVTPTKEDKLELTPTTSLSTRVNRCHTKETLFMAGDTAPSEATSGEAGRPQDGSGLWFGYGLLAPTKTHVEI
Experimental: (§2) Receptor affinities (IC50 values) of the compounds of the invention of the general formulae (I, Ia and Ib) were measured as described by E. Heuillet et al., J. Neurochem., 60: 868-876 (1993) and D. Aharony et al. Mol. Pharmacol, 44: 356-363 (1993) commercially by Cerep (Assay 826-1h on page 67 and Assay 826-2h on page 68 of the 2005 catalogue).
(§3) FIGS. 8-11 show competition plots measured in the NK1 and NK2 receptor-ligand binding assays with [Sar^9, Met(O2)^11]-SP for NK1 and [Nle^10]-NKA(4-10) for NK2, and the selected substances (68 and 76).

LHRH receptor [2] = target: T2, LHRH receptor (Rattus norvegicus, UniProt P30969); experiment: LHRH receptor-ligand binding assay (membrane preparations from rat pituitary cells); settings: competition with 0.05 nM [125I][D-Trp6]-LHRH, 90 min, 4° C., rat pituitary membranes
T2 construct: rat pituitary cells which naturally strongly express the LHRH receptor; from tissue; host or cells: rat pituitary cells (membrane preparation)
T2 sequence (P30969 1-327): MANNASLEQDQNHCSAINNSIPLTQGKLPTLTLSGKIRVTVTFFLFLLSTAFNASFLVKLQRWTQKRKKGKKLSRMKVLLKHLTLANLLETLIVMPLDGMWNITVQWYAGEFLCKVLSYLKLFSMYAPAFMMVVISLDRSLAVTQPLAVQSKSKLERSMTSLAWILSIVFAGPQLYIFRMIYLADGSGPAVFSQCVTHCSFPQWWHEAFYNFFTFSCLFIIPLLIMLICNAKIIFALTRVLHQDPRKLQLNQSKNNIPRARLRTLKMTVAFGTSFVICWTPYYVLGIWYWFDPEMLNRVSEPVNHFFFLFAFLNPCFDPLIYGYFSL
Experimental: Heterologous competition experiments were carried out using membrane preparations from rat pituitary cells which naturally strongly express the LHRH receptor. The ligand used in this case was [^125I][D-Trp^6]-LHRH in a concentration of 0.05 nM. Unlabeled [D-Trp^6]-LHRH was used in a concentration of 1 μM, or the test substance was used in the desired concentration, for competition. After an incubation time of 90 minutes at 4° C., the bound ligand was measured by scintillation (Halmos et al., Proc. Natl. Acad. Sci. USA, 1996, 93, 2398).
The result obtained was the percentage proportion of bound ligand in the presence of the competitor related to the specifically bound proportion of the control (see result for selected compounds in Table 3). EC50 values were calculated by nonlinear regression analysis of the competition plots.

[3] = Metabolic stability in rat liver microsomes; type: in vitro ADME; settings: 37° C., NADPH
Experimental: as §1

NK1 (h) = target: T3, NK1 (h) (Homo sapiens, UniProt P25103); experiment: NK1 receptor-ligand binding assay (Cerep); settings: for nH: Hill coefficient of competition plot; for IC50 / Ki: ligand [Sar9, Met(O2)11]-SP
T3 construct: Cerep Assay 826-1h
Experimental: as §2, §3

[4] = in vivo; cited from earlier work
LHRH receptor [5] = target: LHRH receptor (Homo sapiens, UniProt P30968); settings: prior art, N. Cho et al. J. Med. Chem. 41, 4190-4195 (1998); cited from earlier work
[6] = Saturation solubility in water; type: physicochemical; settings: water, thermodynamic from solid; maximum of 1% DMSO added, HPLC UV
Experimental: The saturation solubility in water was determined in accordance with the following description: to initiate dissolving of the substances and to improve the wetting of the samples, a maximum of 1% DMSO was added. The content was checked by using an HPLC UV method.

T3 sequence (P25103 whole entry): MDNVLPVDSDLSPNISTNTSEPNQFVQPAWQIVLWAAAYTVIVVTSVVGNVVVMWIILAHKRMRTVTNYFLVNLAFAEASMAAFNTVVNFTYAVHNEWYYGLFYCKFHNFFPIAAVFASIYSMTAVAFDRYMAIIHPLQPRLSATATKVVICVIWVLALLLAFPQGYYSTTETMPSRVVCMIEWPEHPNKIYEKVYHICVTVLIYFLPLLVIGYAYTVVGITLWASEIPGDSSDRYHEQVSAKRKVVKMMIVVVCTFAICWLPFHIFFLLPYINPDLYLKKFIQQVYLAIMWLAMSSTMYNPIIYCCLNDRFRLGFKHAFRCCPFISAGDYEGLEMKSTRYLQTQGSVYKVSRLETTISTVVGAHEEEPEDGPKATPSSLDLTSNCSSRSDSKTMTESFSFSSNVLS
Chain of LHRH receptor (Homo sapiens, UniProt P30968) (P30968 whole entry): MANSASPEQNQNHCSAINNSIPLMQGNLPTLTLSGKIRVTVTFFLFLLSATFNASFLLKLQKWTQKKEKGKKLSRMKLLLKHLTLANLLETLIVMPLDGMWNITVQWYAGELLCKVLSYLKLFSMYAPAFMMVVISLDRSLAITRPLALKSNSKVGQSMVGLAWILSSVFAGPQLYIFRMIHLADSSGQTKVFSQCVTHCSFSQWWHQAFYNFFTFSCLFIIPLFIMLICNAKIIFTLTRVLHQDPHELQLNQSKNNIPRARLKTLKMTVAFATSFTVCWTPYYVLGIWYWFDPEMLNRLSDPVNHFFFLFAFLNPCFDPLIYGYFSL

SMILES | recovery at 10 μM [1] [%] | nH (NK2 (h)) | IC50 (NK2 (h)) [nM] | Ki (NK2 (h)) [nM] | EC50 (LHRH receptor [2]) [nM] | recovery at 10 μM [3] [%] | nH (NK1 (h)) | IC50 (NK1 (h)) [nM] | Ki (NK1 (h)) [nM] | also measured
CCC(C)[C@H](NC(=O)Cc1ccccc1F)C(=O)N[C@]1(C(=O)N[C@H](C(N)=S)C(C)CC)CCc2[nH]c3c(Cl)cc(F)cc3c2C1 (stereo partly drawn) [Compound 68, (R)-8-chloro-6-fluoro-3-{(S)-2-[2-(2-fluorophenyl)acetylamino]-3-methylpentanoylamino}-2,3,4,9-tetrahydro-1H-carbazole-3-carboxylic acid ((S)-2-methyl-1-thiocarbamoylbutyl)amide] | 75 | 3.8 | 1600 | 850 | 1 | 80 | 2.0 | 1400 | 640 | Relative LH concentration (%) (averages ± SEM compared with the concentration before treatment) (castrated rats; time 0 h): 95.0 ± 9.3%; Relative LH concentration (%) (averages ± SEM compared with the concentration before treatment) (castrated rats; time +4 h): 17.4 ± 3.3%; Relative LH concentration (%) (averages ± SEM compared with the concentration before treatment) (castrated rats; time +6 h): 16.0 ± 1.5%; Relative LH concentration (%) (averages ± SEM compared with the concentration before treatment) (castrated rats; time +8 h): 12.9 ± 1.0%; Relative LH concentration (%) (averages ± SEM compared with the concentration before treatment) (castrated rats; time +12 h): 16.0 ± 2.6%; Relative LH concentration (%) (averages ± SEM compared with the concentration before treatment) (castrated rats; time +24 h): 65.7 ± 10.8%; Relative LH concentration (%) (averages ± SEM compared with the concentration before treatment) (castrated rats; time +30 h): 78.1 ± 7.7%; Relative LH concentration (%) (averages ± SEM compared with the concentration before treatment) (castrated rats; time −24 h (before treatment)): 105.4 ± 12.7%
CCC(C)[C@H](NC(=O)Cc1ccccc1F)C(=O)N[C@]1(C(=O)N[C@H](C(N)=S)C(C)CC)CCc2[nH]c3c(C(F)(F)F)cccc3c2C1 (stereo partly drawn) [Compound 76, (R)-3-{(S)-2-[2-(2-fluorophenyl)acetylamino]-3-methylpentanoylamino}-8-trifluoromethyl-2,3,4,9-tetrahydro-1H-carbazole-3-carboxylic acid ((S)-2-methyl-1-thiocarbamoylbutyl)amide] | 84 | 2.3 | 1500 | 810 | 0.27 | 69 | 2.3 | 1900 | 840 | –
CC(C)OC(=O)c1cn(Cc2c(F)cccc2F)c2sc(-c3ccc(NC(=O)C(C)C)cc3)c(CN(C)Cc3ccccc3)c2c1=O [Compound T-98475] | – | – | – | – | – | – | – | – | – | bioavailability [4]: low; receptor affinity (LHRH receptor [5]): high
CCC(C)[C@H](NC(=O)[C@@]1(NC(=O)[C@@H](NC(=O)OCc2ccccc2)C(C)CC)CCc2[nH]c3c(Cl)cc(Cl)cc3c2C1)C(N)=O (stereo partly drawn) [Example 295 from WO 03/051837 A2, Benzyl {(S)-1-[(R)-3-((S)-1-carbamoyl-2-methylbutylcarbamoyl)-6,8-dichloro-2,3,4,9-tetrahydro-1H-carbazol-3-ylcarbamoyl]-2-methylbutyl]carbamate, reference compound] | – | – | – | – | – | – | – | – | – | recovery at 1 μM ([1]; 1 μM): 0%; solubility [6]: < 0.05 µg/mL; recovery at 1 μM ([3]; 1 μM): 0%
